Converted amounts (≈) assume the structure as drawn.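 Briefly, cells in 96-well plates were exposed to five compound concentrations for 48 h, and endpoints were estimated by linear interpolation. GI50 = concentration required for 50% inhibition of growth. TGI is the concentration that stops growth completely.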

Among the test systems are MDA-MB-435; MDA-N; NCI-H226 lung; PC-3 prostate; RXF 393 renal; TK-10 renal; HL-60(TB) leukemia; K-562 leukemia; SK-OV-3 ovarian.
Test in all cases: NCI anticancer screen, dose series, 48 h

In the case of `Cn1c(=O)c2[nH]c(CCCCC(=O)O)nc2n(C)c1=O`, the TGI in the assay with MDA-MB-435, in the assay on MDA-N, in the assay with NCI-H226 lung, with PC-3 prostate, in the assay with RXF 393 renal and with TK-10 renal was over 100 µM throughout.
Turning to `NC(CCC(=O)O)C(=O)N1CCN(c2nc(N3CCCC3)c3nc(Cl)c(NCc4ccccc4)nc3n2)CC1` (stereo unspecified), the TGI is 24.4 µM with HL-60(TB) leukemia; 35.7 µM in the assay with K-562 leukemia; 26.2 µM in the assay with MDA-MB-435; 23.1 µM in the assay on MDA-N; 32.9 µM with NCI-H226 lung; 26.9 µM with PC-3 prostate. The TGI with SK-OV-3 ovarian came out at 32.9 µM; in the assay on TK-10 renal, 31 µM.
On to `O=c1c2cc(S(=O)(=O)O)ccc2nc(COc2ccc(Oc3ccc(Cl)cc3Cl)cc2)n1-c1ccc(Cl)cc1Oc1c(Cl)cccc1Cl`, for which the TGI in the assay on HL-60(TB) leukemia is over 100 µM; in the assay with K-562 leukemia, over 100 µM; in the assay with MDA-MB-435, 66.5 µM; in the assay on MDA-N it was 99.4 µM; in the assay with NCI-H226 lung, 49.6 µM; with PC-3 prostate it was over 100 µM. Moreover, the results for the TGI with SK-OV-3 ovarian and in the assay on TK-10 renal were 63.2 µM and over 100 µM, respectively.
Consider `N#Cc1nc(C2=C(Cl)c3ccccc3OC2)[nH]c1C#N`, for which the TGI in the assay with HL-60(TB) leukemia is 70.7 µM; with K-562 leukemia it was over 100 µM; in the assay with PC-3 prostate, 71.7 µM; in the assay with RXF 393 renal, 38.8 µM; with SK-OV-3 ovarian, over 100 µM; in the assay with TK-10 renal, over 100 µM.
Turning to `COC1(OC)CC(CO)(CNc2nc(N)nc(Cl)c2/C=N\O)C1`, the TGI in the assay with HL-60(TB) leukemia, in the assay with K-562 leukemia, in the assay on MDA-MB-435, in the assay on MDA-N, in the assay on NCI-H226 lung and in the assay on PC-3 prostate was over 100 µM in each case. The TGI in the assay with RXF 393 renal and in the assay on TK-10 renal was over 100 µM in each case.
`O=c1[nH]nc(Cc2ccccc2)[nH]1`: the TGI in the assay on HL-60(TB) leukemia, in the assay on K-562 leukemia, in the assay with MDA-MB-435, in the assay with MDA-N, in the assay on NCI-H226 lung and in the assay with PC-3 prostate was over 100 µM each time. Also, the TGI in the assay on RXF 393 renal and in the assay on TK-10 renal was over 100 µM in each case.
With `NNc1nncc2n[nH]nc12`, the TGI in the assay on HL-60(TB) leukemia, with K-562 leukemia, in the assay with MDA-MB-435, in the assay with MDA-N, in the assay with NCI-H226 lung and in the assay with PC-3 prostate was over 100 µM throughout. The TGI with RXF 393 renal and with TK-10 renal was over 100 µM throughout.
For the compound `O=C(Cc1ccccc1)N/N=C/c1ccccc1O`, the TGI in the assay on HL-60(TB) leukemia was over 100 µM; in the assay on K-562 leukemia, over 100 µM; in the assay on MDA-MB-435, over 100 µM; in the assay with MDA-N, over 100 µM; with NCI-H226 lung, 81.5 µM; in the assay on PC-3 prostate it was over 100 µM. In addition, the TGI with SK-OV-3 ovarian and in the assay on TK-10 renal was over 100 µM throughout.
With `CC(C)=CC(=O)C[C@H]1C(=O)O[C@@H]2C[C@H]3C(C)=CC(=O)[C@@H](O)[C@]3(C)[C@H]3[C@@]4(O)OC[C@]32[C@@H]1[C@@H](C)[C@H]4O`, the TGI with HL-60(TB) leukemia is over 100 µM; with K-562 leukemia it was 1.3 µM; in the assay on MDA-MB-435, 0.305 µM; with MDA-N, 0.329 µM; with NCI-H226 lung, under 0.0156 µM; in the assay on PC-3 prostate, 0.241 µM. Besides, the TGI was 4.98 µM in the assay with SK-OV-3 ovarian and 0.512 µM with TK-10 renal.
As for `CSC1=N/C(=C\c2ccccc2)C(=O)N1CN1CCCCC1`, the TGI with K-562 leukemia, with MDA-MB-435, in the assay with MDA-N, in the assay on NCI-H226 lung, in the assay on PC-3 prostate and with SK-OV-3 ovarian was over 100 µM each time. In the assay on TK-10 renal, this compound gave a TGI of over 100 µM.
On to `CCOP(=O)(O)C1C(CO)OC(n2ccc(=O)[nH]c2=O)C1O` (stereo unspecified), for which the TGI in the assay with HL-60(TB) leukemia, in the assay on K-562 leukemia, in the assay with MDA-N, in the assay on NCI-H226 lung, in the assay on PC-3 prostate and with RXF 393 renal was over 100 µM each time. The TGI in the assay on TK-10 renal is over 100 µM.
As to `COC(=O)C(COC(C)=O)NC(=O)/C=C/c1ccc(O)c(OC(C)=O)c1` (stereo unspecified), the TGI with K-562 leukemia, with MDA-MB-435, in the assay on MDA-N, with NCI-H226 lung, with PC-3 prostate and in the assay with SK-OV-3 ovarian was over 100 µM each time. Moreover, the TGI with TK-10 renal is over 100 µM.
Consider `Cc1ccc(-c2c3nc(c(-c4ccc(C)cc4)c4ccc([nH]4)c(-c4ccc(OCC5COC(C)(C)O5)cc4)c4nc(c(-c5ccc(C)cc5)c5ccc2[nH]5)C=C4)C=C3)cc1` (stereo unspecified), for which the TGI in the assay with MDA-MB-435, in the assay with MDA-N, in the assay on NCI-H226 lung and with TK-10 renal was over 31.6 µM each time.
In the case of `NC(=S)Nc1ccc(S(=O)(=O)Nc2ccc(S(N)(=O)=O)cc2)cc1`, the TGI in the assay with HL-60(TB) leukemia, in the assay on K-562 leukemia, in the assay with MDA-MB-435, in the assay on MDA-N, in the assay on NCI-H226 lung and in the assay on PC-3 prostate was over 100 µM in each case. In addition, the TGI with RXF 393 renal and in the assay on TK-10 renal was over 100 µM throughout.
For the compound `Cc1nn(C(=O)Cc2ccccc2)c2c1C(c1ccc(N(C)C)cc1)SC(N)=N2` (stereo unspecified), the TGI with HL-60(TB) leukemia, with MDA-MB-435, in the assay on MDA-N, in the assay on NCI-H226 lung, with PC-3 prostate and with SK-OV-3 ovarian was over 100 µM throughout. In the assay with TK-10 renal, this compound returned a TGI of over 100 µM.
For `NC(N)=N/N=C/c1c(-c2cccc([N+](=O)[O-])c2)nc2n1CCS2`, the TGI is 45.6 µM in the assay with HL-60(TB) leukemia; over 100 µM in the assay with K-562 leukemia; 55.3 µM in the assay on MDA-MB-435; 39 µM with NCI-H226 lung; 44.5 µM in the assay with PC-3 prostate; 36 µM in the assay on RXF 393 renal. Further, the TGI in the assay with TK-10 renal is 47.4 µM.
In the case of `O=C1NN(C2=NNC3(C(=O)N2)c2ccccc2-c2ccccc23)C(c2ccccc2)=N/C1=C/c1ccc(O)cc1`, the GI50 is 51.7 µg/mL (≈ 98.2 µM) in the assay on HL-60(TB) leukemia; 35.8 µg/mL (≈ 68 µM) with K-562 leukemia; 69.9 µg/mL (≈ 133 µM) with MDA-MB-435; 56.8 µg/mL (≈ 108 µM) in the assay on MDA-N; 56.3 µg/mL (≈ 107 µM) in the assay on PC-3 prostate; 97 µg/mL (≈ 184 µM) in the assay with RXF 393 renal. Also, the GI50 was 25.6 µg/mL (≈ 48.7 µM) in the assay on SK-OV-3 ovarian and 39.1 µg/mL (≈ 74.2 µM) with TK-10 renal. The TGI in the assay on HL-60(TB) leukemia, in the assay with K-562 leukemia, with MDA-MB-435, with MDA-N, in the assay with PC-3 prostate and with RXF 393 renal was over 150 µg/mL in each case. Moreover, the TGI in the assay with SK-OV-3 ovarian is over 150 µg/mL; with TK-10 renal it was 71.9 µg/mL.
